# According to US12708624B2, “Methods of treating pulmonary fibrosis” (Amplia Therapeutics Limited, priority 2020, dated 2026):
# How the values were obtained:
# off-target kinase = settings: literature; cited from earlier work
# 467 other kinases = test: KINOMEScan assay; assay type: binding; settings: tested at 1 micromolar; compared to 467 other kinases
# [1] = system: bleomycin-induced lung fibrosis; test: bleomycin-induced lung fibrosis, prevention model; assay type: in vivo, C57BL/6 mice; settings: for lung damage (Ashcroft score): day 23, vs vehicle; for airways resistance (AHR): vs vehicle
# Method: (§1) FIG. 1. Protocols used to assess the ability of the compound of Formula I to prevent or treat lung fibrosis induced by intratracheal bleomycin (30 μl; 0.05 U/mouse) or PBS (30 μl; vehicle control).
# FIG. 3. Prevention Protocol. a) Measurement of mouse lung fibrosis on day 23 after treatment with PBS, bleomycin and vehicle, bleomycin and the compound of formula I 40 mg/kg or 80 mg/kg (n=8 mice per group). (a) The Ashcroft score was used to obtain a semi quantitative analysis of fibrosis (n=4 mice per group). (b) Acid-soluble collagen content in the mouse lung (n=8 mice per group).
# (§2) FIG. 5. Measurements of airways hyper-responsiveness (AHR) after methacholine challenge in the mouse lung. Panels (a)-(d) prevention protocol at day 23 after a single intra-tracheal dose with PBS or bleomycin and oral dosing with the compound of formula I as indicated. Panels (e)-(h) treatment protocol at day 22 after a single intra-tracheal dose with PBS or bleomycin and oral dose with the compound of formula I as indicated. Panels (a, e) show airways resistance, (b, f) transpulmonary resistance, (c, g) elastance, and (d, h) compliance following challenge with 10 mg/ml methacholine.
# (§3) Lung fibrosis in female C57BL/6 mice aged between 6-8 weeks (ARC, Perth, Australia) was induced by a single intra-tracheal dose of bleomycin (0.05 U/mouse). Control mice received 30 μl of buffered saline.
# Mice in the prevention study were dosed orally once daily from 24 hours post bleomycin administration until day 22 with either 200 μl of vehicle (Sterile water containing 0.5% (w/v) hydroxypropylmethylcellulose, 0.5% (v/v) benzyl alcohol and 0.4% (v/v) Tween 80), or the compound of Formula I at a dosage of 40 mg/kg or 80 mg/kg by oral gavage.
# (§4) There were eight mice per group for all experiments and all mice were weighed daily during administration of the treatments.
# [2] = system: bleomycin-induced lung fibrosis; test: bleomycin-induced lung fibrosis, treatment model; assay type: in vivo, C57BL/6 mice
# Method: as §1
# FIG. 4. […] (a) The Ashcroft score was used to obtain a semi quantitative analysis of fibrosis (n=4 mice per group). (b) Acid-soluble collagen content in the mouse lung (n=8 mice per group).
# as §2, §3, §4
# common cytochrome P450s = test: inhibition of common cytochrome P450s
# [3] = exposure following oral dosing in rats
# [4] = exposure following oral dosing in mice
# [5] = exposure following oral dosing in dogs
# rat hepatocytes = test: metabolites upon exposure to rat hepatocytes
# dog hepatocytes = test: metabolites upon exposure to dog hepatocytes
# human hepatocytes = test: metabolites upon exposure to human hepatocytes
# primate hepatocytes = test: metabolites upon exposure to primate hepatocytes
# [6] = system: idiopathic pulmonary fibrosis; settings: cited from earlier work; for reduction in the rate of decline in FVC: patients with mild or moderate FVC impairment at baseline, over 1 year of treatment
# [7] = patients with IPF; cited from earlier work
smiles,measurement,setting,value
"CN(c1ncccc1CNc1nc(Nc2ccc3c(c2)CC(=O)N3)ncc1C(F)(F)F)S(C)(=O)=O [PF-562,271]",off-target kinase activity,off-target kinase,significant off-target kinase activity
CNC(=O)c1ccccc1Nc1nc(Nc2ccc(N3CCOCC3)cc2OC)ncc1Cl [TAE226],off-target kinase activity,off-target kinase,significant off-target kinase activity
COc1cc(C2CCN(C)CC2)ccc1Nc1ncc(C(F)(F)F)c(CCc2ccccc2CC(N)=O)n1 [compound of Formula I],S10 selectivity score,467 other kinases,0.02
same,"other measures of AHR (transpulmonary resistance, elastance, compliance)",[1]; 10 mg/ml methacholine,did not significantly inhibit other measures of AHR
same,lung damage (Ashcroft score),[1]; 40 mg/kg oral once daily,attenuated bleomycin-induced lung damage
same,airways resistance (AHR),"[1]; 40 mg/kg, 10 mg/ml methacholine",significantly decreased airways resistance
same,lung damage (Ashcroft score),[1]; 80 mg/kg oral once daily,not at 80 mg/kg attenuated bleomycin-induced lung damage
same,airways resistance (AHR),"[1]; 80 mg/kg, 10 mg/ml methacholine",significantly decreased airways resistance
same,airways resistance (AHR),"[2]; 10 mg/ml methacholine, vs vehicle",no effect on airways resistance
same,"all other measures of AHR (transpulmonary resistance, elastance, compliance)","[2]; dosing from day 7 after bleomycin, 10 mg/ml methacholine, vs vehicle",effectively reversed the AHR
same,lung damage (Ashcroft score),"[2]; dosing from day 7 after bleomycin, day 22, vs vehicle",did not significantly alter bleomycin-induced lung damage
same,inhibition of common cytochrome P450s,common cytochrome P450s,no detectable inhibition
same,exposure dose proportionality,[3],dose-proportional exposures
same,exposure dose proportionality,[4],dose-proportional exposures
same,exposure dose proportionality,[5],dose-proportional exposures
same,unique metabolites,rat hepatocytes,no unique metabolites
same,unique metabolites,dog hepatocytes,no unique metabolites
same,unique metabolites,human hepatocytes,no unique metabolites
same,unique metabolites,primate hepatocytes,no unique metabolites
COC(=O)c1ccc2c(c1)NC(=O)/C2=C(\Nc1ccc(N(C)C(=O)CN2CCN(C)CC2)cc1)c1ccccc1 [nintedanib],deterioration of FVC on extended treatment,[6]; extended treatment for up to four years,sustained decline in deterioration of FVC
same,reduction in the rate of decline in FVC,[6],approximately 50%
same,side effects / most common adverse effects,[7],nausea and diarrhea
Cc1ccc(=O)n(-c2ccccc2)c1 [pirfenidone],reduction in the rate of decline in FVC,[6],approximately 50%
same,side effects / most common adverse effects,[7],"diarrhea, photosensitivity and rash"
